Experimental data as given in ChEMBL document CHEMBL1123320, “Studies in potential filaricides. 18. Synthesis of 2,2'-disubstituted 5,5'-dibenzimidazolyl ketones and related compounds as potential anthelmintics” (1986).

Assays:
Rattus norvegicus [1] = assay: Anthelmintic activity against Hymenolepis nana in rats at a dose of 250x1 mg/kg administered perorally; format: functional
Cricetinae gen. sp. [2] = assay: Anthelmintic activity against Ancylostoma ceylanicum in hamsters at a dose of 25x1 mg/kg administered perorally; format: functional, Cricetulus griseus
Mastomys natalensis [3] = assay: Filaricidal activity against Dipetalonema viteae in Mastomys at a dosage of 150 mg/kg x 5 administered orally at a day of 42; format: functional; details: route oral
Mastomys natalensis [4] = assay: Filaricidal activity against Brugia malayi in Mastomys at a dosage of 200 mg/kg x 5 administered orally at a day of 8; format: functional; details: route oral
Rattus norvegicus [5] = assay: Anthelmintic activity against Hymenolepis nana in rats at a dose of 50x1 mg/kg administered perorally; format: functional
Cricetinae gen. sp. [6] = assay: Anthelmintic activity against Ancylostoma ceylanicum in hamsters at a dose of 12.5x1 mg/kg administered perorally; format: functional, Cricetulus griseus
Mastomys natalensis [7] = assay: Filaricidal activity against Dipetalonema viteae in Mastomys at a dosage of 150 mg/kg x 5 administered orally at a day of 8; format: functional; details: route oral
Sigmodon hispidus [8] = assay: Filaricidal activity against Litomosoides carinii in cotton rats at a dosage of 10 mg/kg x 5 administered intraperitoneally at a day of 8; details: route intraperitoneal
Rattus norvegicus [9] = assay: Anthelmintic activity against Hymenolepis nana in rats at a dose of 100x1 mg/kg administered perorally; format: functional
Cricetinae gen. sp. [10] = assay: Anthelmintic activity against Ancylostoma ceylanicum (hook worm) in hamsters at a dose of 50x1 mg/kg administered perorally; format: functional, Cricetulus griseus
Cricetinae gen. sp. [11] = assay: Anthelmintic activity against Ancylostoma ceylanicum in hamsters at a dose of 6.25 x1 mg/kg administered perorally; format: functional, Cricetulus griseus
Mastomys natalensis [12] = assay: Filaricidal activity against Dipetalonema viteae in Mastomys at a dosage of 150 mg/kg x 5 administered orally at a day of 21; format: functional; details: route oral
Mastomys natalensis [13] = assay: Filaricidal activity against Brugia malayi in Mastomys at a dosage of 200 mg/kg x 5 administered orally at a day of 21; format: functional; details: route oral
Mastomys natalensis [14] = assay: Filaricidal activity against Brugia malayi in Mastomys at a dosage of 200 mg/kg x 5 administered orally; format: functional; details: route oral
Mastomys natalensis [15] = assay: Filaricidal activity against Brugia malayi in Mastomys at a dosage of 200 mg/kg x 5 administered orally at a day of 42; details: route oral
Mastomys natalensis [16] = assay: Filaricidal activity against Dipetalonema viteae in Mastomys at a dosage of 25 mg/kg x 5 administered subcutaneous at a day of 42; format: functional
Mastomys natalensis [17] = assay: Filaricidal activity against Brugia malayi in Mastomys at a dosage of 50 mg/kg x 5 administered intraperitoneally at a day of 8; format: functional; details: route intraperitoneal
Mastomys natalensis [18] = assay: Filaricidal activity against Brugia malayi in Mastomys at a dosage of 50 mg/kg x 5 administered intraperitoneally at a day of 91; format: functional; details: route intraperitoneal
Sigmodon hispidus [19] = assay: Filaricidal activity against Litomosoides carinii in cotton rats at a dosage of 100 mg/kg x 5 administered orally at a day of 8; details: route oral
Cricetinae gen. sp. [20] = assay: Anthelmintic activity against Ancylostoma ceylanicum in hamsters at a dose of 50x1 mg/kg administered perorally; format: functional, Cricetulus griseus
Rattus norvegicus [21] = assay: Filaricidal activity against Litomosoides carinii in cotton rats at a dosage of 100 mg/kg x 5 administered orally; format: functional; details: route oral
Mastomys natalensis [22] = assay: Filaricidal activity against Brugia malayi in Mastomys at a dosage of 50 mg/kg x 5 administered intraperitoneally at a day of 21; format: functional; details: route intraperitoneal
Mastomys natalensis [23] = assay: Filaricidal activity against Dipetalonema viteae in Mastomys at a dosage of 25 mg/kg x 5 administered subcutaneous at a day of 21; format: functional
Rattus norvegicus [24] = assay: Filaricidal activity against Litomosoides carinii in cotton rats at a dosage of 10 mg/kg x 5 administered intraperitoneally at a day of 42; format: functional; details: route intraperitoneal
Mastomys natalensis [25] = assay: Filaricidal activity against Brugia malayi in Mastomys at a dosage of 50 mg/kg x 5 administered intraperitoneally at a day of 42; format: functional; details: route intraperitoneal
Sigmodon hispidus [26] = assay: Filaricidal activity against Litomosoides carinii in cotton rats at a dosage of 10 mg/kg x 5 administered intraperitoneally at a day of 42; details: route intraperitoneal
Sigmodon hispidus [27] = assay: Filaricidal activity against Litomosoides carinii in cotton rats at a dosage of 100 mg/kg x 5 administered orally at a day of 42; details: route oral
Mastomys natalensis [28] = assay: Filaricidal activity against Dipetalonema viteae in Mastomys at a dosage of 25 mg/kg x 5 administered subcutaneous; format: functional
Mus musculus [29] = assay: Anthelmintic activity against Syphacia obvelata in mice at a dose of 100x1 mg/kg administered perorally; format: functional
Mus musculus [30] = assay: Anthelmintic activity against Syphacia obvelata in mice at a dose of 50x1 mg/kg administered perorally; format: functional
Mastomys natalensis [31] = assay: Filaricidal activity against Brugia malayi in Mastomys at a dosage of 50 mg/kg x 5 administered intraperitoneally; format: functional; details: route intraperitoneal
Sigmodon hispidus [32] = assay: Filaricidal activity against Litomosoides carinii in cotton rats at a dosage of 100 mg/kg x 5 administered orally at a day of 21; details: route oral
Mastomys natalensis [33] = assay: Filaricidal activity against Brugia malayi in Mastomys at a dosage of 200 mg/kg x 5 administered orally at a day of 91; format: functional; details: route oral
Sigmodon hispidus [34] = assay: Filaricidal activity against Litomosoides carinii in cotton rats at a dosage of 10 mg/kg x 5 administered intraperitoneally at a day of 21; details: route intraperitoneal
Mastomys natalensis [35] = assay: Filaricidal activity against Dipetalonema viteae in Mastomys at a dosage of 150 mg/kg x 5 administered orally; format: functional; details: route oral
Mus musculus [36] = assay: Anthelmintic activity against Syphacia obvelata in mice at a dose of 25x1 mg/kg administered perorally; format: functional
Mastomys natalensis [37] = assay: Filaricidal activity against Dipetalonema viteae in Mastomys at a dosage of 25 mg/kg x 5 administered subcutaneous at a day of 8; format: functional
Mastomys natalensis [38] = assay: Filaricidal activity against Brugia malayi in Mastomys at a dosage of 200 mg/kg x 5 administered orally at a day of 63; format: functional; details: route oral
Mastomys natalensis [39] = assay: Filaricidal activity against Brugia malayi in Mastomys at a dosage of 50 mg/kg x 5 administered intraperitoneally at a day of 63; format: functional; details: route intraperitoneal

COC(=O)Nc1nc2cc(C(=O)c3ccc4[nH]c(NC(=O)OC)nc4c3)ccc2[nH]1
Animals cured (Rattus norvegicus [1]): 100% | Animals cured (Cricetinae gen. sp. [2]): 50% | Worm reduction (Cricetinae gen. sp. [2]): 60% | Removal of microfilariae (Mastomys natalensis [3]): 100% | Removal of microfilariae (Mastomys natalensis [4]): 0% | Animals cured (Rattus norvegicus [5]): 16.6% | Animals cured (Cricetinae gen. sp. [6]): 0% | Worm reduction (Cricetinae gen. sp. [6]): 40.4% | Removal of microfilariae (Mastomys natalensis [7]): 0% | Removal of microfilariae (Sigmodon hispidus [8]): 65.6% | Animals cured (Rattus norvegicus [9]): 50% | Worm reduction (Cricetinae gen. sp. [10]): 100% | Animals cured (Cricetinae gen. sp. [11]): 0% | Worm reduction (Cricetinae gen. sp. [11]): 0% | Removal of microfilariae (Mastomys natalensis [12]): 0% | Removal of microfilariae (Mastomys natalensis [13]): 0% | Death (Mastomys natalensis [14]): 97% | Removal of microfilariae (Mastomys natalensis [15]): 30% | Removal of microfilariae (Mastomys natalensis [16]): 100% | Removal of microfilariae (Mastomys natalensis [17]): 0% | Removal of microfilariae (Mastomys natalensis [18]): 93% | Removal of microfilariae (Sigmodon hispidus [19]): 72% | Animals cured (Cricetinae gen. sp. [20]): 100% | Death (Rattus norvegicus [21]): 100% | Removal of microfilariae (Mastomys natalensis [22]): 60.1% | Removal of microfilariae (Mastomys natalensis [23]): 58.8% | Death (Rattus norvegicus [24]): 100% | Removal of microfilariae (Mastomys natalensis [25]): 89% | Removal of microfilariae (Sigmodon hispidus [26]): 100% | Removal of microfilariae (Sigmodon hispidus [27]): 100% | Death (Mastomys natalensis [28]): 100% | Animals cured (Mus musculus [29]): 100% | Animals cured (Mus musculus [30]): 66.6% | Death (Mastomys natalensis [31]): 99% | Removal of microfilariae (Sigmodon hispidus [32]): 80.9% | Removal of microfilariae (Mastomys natalensis [33]): 94% | Removal of microfilariae (Sigmodon hispidus [34]): 100% | Death (Mastomys natalensis [35]): 100% | Animals cured (Mus musculus [36]): 0% | Removal of microfilariae (Mastomys natalensis [37]): 0% | Removal of microfilariae (Mastomys natalensis [38]): 63.9% | Removal of microfilariae (Mastomys natalensis [39]): 89.4%
